These results are taken from PMC5085761 (International Journal of Molecular Sciences, 2016).

For one data set, the system named is LLC-PK1 monolayer model. Description: Inhibition study of [14C]fluciclovine apical-to-basal transport, LLC-PK1 monolayer model. To be noted: 1 mM inhibitor, 10 µM [14C]fluciclovine. From the text:
Natural and synthetic amino acids were used as inhibitors: MeAIB (2-(methylamino)-isobutyric acid, for system A in the presence of Na^+); Thr (L-threonine, for system ASC in the presence of Na^+); and BCH (2-aminobicyclo[2,2,1]heptane-2-carboxylic acid, for system L in the absence of Na^+).

The subject of another data set is LLC-PK1 monolayers. In words: Apical-to-basal transport through LLC-PK1 monolayers. It counts as in vitro ADME, pig. How it is done:
The LLC-PK1 cell line was purchased from DS Pharma Biomedical (Osaka, Japan). Cells were maintained in Dulbecco’s modified Eagle’s medium (DMEM; Life Technologies Japan, Tokyo, Japan) supplemented with 10% (v/v) fetal bovine serum (American Type Culture Collection, Manassas, VA, USA) and antibiotics (100 U/mL penicillin and 100 μg/mL streptomycin (Life Technologies Japan)). Cells were cultured at 37 °C under an atmosphere containing 5% CO2 before the start of the experiments.
Cells were seeded at a density of 1.5 × 10^6 cells/0.25 mL on the membrane of cell culture inserts fitting 24-well plates (upper compartment, apical side; Becton Dickinson, Franklin Lakes, NJ, USA). Flat-bottom 24-well tissue culture plates (Becton Dickinson) containing 0.95 mL of culture medium per well were used as the basolateral side (bottom compartment).
LLC-PK1 monolayer formation was monitored by the measurement of TER using an EVOM-2 and Endohm24 (World Precision Instruments, Inc., Sarasota, FL, USA) according to the manufacturer’s protocol. […] [^3H]Mannitol transport was measured as described in Section 4.3 for the validation of tight junction formation because mannitol passes through the cell monolayers via the paracellular route.
Experimental procedures were performed as described previously with minor modifications. After cultivation as described above, the culture media in both compartments were replaced with Na^+ buffer (137 mM NaCl, 2.7 mM KCl, 8 mM Na2HPO4, 1.5 mM KH2PO4, 5.6 mM D-glucose, 0.9 mM CaCl2, and 0.5 mM MgCl2; pH 7.4 at 37 °C), and the cells were preincubated for 10 min at 37 °C under normal air conditions. After the buffer was removed from each compartment, the permeability experiments were started with the addition of 0.25 mL of Na^+ buffer containing radiolabeled tracers (final concentration: 81 nM for [^3H]mannitol and 10 μM for the ^14C-labeled amino acid tracers) in each upper compartment, and 0.95 mL of Na^+ buffer in each bottom compartment. The inserts were placed into new 24-well culture plates containing 0.95 mL/well of Na^+ buffer after 5, 15, 30, 60, and 90 min of incubation. Subsequently, the cells were incubated up to 120 min at 37 °C under normal air conditions.
The apical-to-basal permeability was measured by sampling an aliquot of the buffer from the upper and bottom compartment at the indicated times. To evaluate intracellular accumulation, the cells were lysed in 0.5 mL of 0.1N NaOH at room temperature following rapid washing of the cells with ice-cold Na^+ buffer. The radioactivity of each aliquot was measured with an LSC6000SC (Beckman Coulter, Inc., Brea, CA, USA) or Tri-Carb 2910TR liquid scintillation counter (PerkinElmer) using Ultima Gold (PerkinElmer).

In data set [1] the test system is L-type amino acid transporter 1 (LAT1). Details: method as in PMID 23647854. To be noted: cited from earlier work.
The test system of data set [2] is alanine-serine-cysteine transporter 2 (ASCT2). Details: method as in PMID 23647854. To be noted: cited from earlier work.
Data set [3] concerns sodium-coupled neutral amino acid transporter 2 (SNAT2). Details: method as in PMID 23647854. To be noted: cited from earlier work.
A further data set deals with [18F]fluciclovine uptake. Details: method as in PMID 21536930. To be noted: cited from earlier work.
Substrate in data set [4]: N[C@]1(C(=O)O)C[C@@H](F)C1
In words: cells, lysate or membranes named. To be noted: not significant vs control vesicles, pH 7.0.

With `NC1(C(=O)O)CC2CCC1C2` (stereo not drawn) [BCH, 2-aminobicyclo[2,2,1]heptane-2-carboxylic acid], the “inhibition of [14C]fluciclovine apical-to-basal transport” value in the data set with LLC-PK1 monolayer model (Na+-free buffer) was “no significant inhibition”. On to `CNC(C)(C)C(=O)O` [MeAIB, 2-(methylamino)-isobutyric acid], for which the “inhibition of [14C]fluciclovine apical-to-basal transport” value in the data set on LLC-PK1 monolayer model (Na+ buffer) was “no significant inhibition”. Still for that read-out and setting: in the case of `C[C@@H](O)[C@H](N)C(=O)O` [Thr, L-threonine] it was “significant inhibition”. Turning to `OC[C@@H](O)[C@@H](O)[C@H](O)[C@H](O)CO` [[^3H]mannitol, D-[1-^3H(N)]mannitol], the “mean percentage of [3H]mannitol permeation” value in the data set on LLC-PK1 monolayers (day 1 after seeding) stood at 19.3%; in the data set on LLC-PK1 monolayers (day 4 after seeding) it was 1.23%; in the data set with LLC-PK1 monolayers (day 7 after seeding), 2.29%. The Km is the substrate concentration at which the rate is half of its maximum. Consider `N[C@]1(C(=O)O)C[C@@H](F)C1` [[^18F]fluciclovine, trans-1-amino-3-[^18F]fluorocyclobutanecarboxylic acid], for which the Km in data set [1] is 230 µM; in data set [2], 92 µM; in data set [3], 222 µM.

As for `Nc1ccc(C(=O)NCC(=O)O)cc1` [p-aminohippurate], in data set [18F]fluciclovine uptake, the “inhibition of [18F]fluciclovine uptake” value was “approximately 5%”.

B1: human BCRP (Homo sapiens) (protein)
chain: MSSSNVEVFIPVSQGNTNGFPATASNDLKAFTEGAVLSFHNICYRVKLKSGFLPCRKPVEKEILSNINGIMKPGLNAILGPTGGGKSSLLDVLAARKDPSGLSGDVLINGAPRPANFKCNSGYVVQDDVVMGTLTVRENLQFSAALRLATTMTNHEKNERINRVIQELGLDKVADSKVGTQFIRGVSGGERKRTSIGMELITDPSILFLDEPTTGLDSSTANAVLLLLKRMSKQGRTIIFSIHQPRYSIFKLFDSLTLLASGRLMFHGPAQEALGYFESAGYHCEAYNNPADFFLDIINGDSTAVALNREEDFKATEIIEPSKQDKPLIEKLAEIYVNSSFYKETKAELHQLSGGEKKKKITVFKEISYTTSFCHQLRWVSKRSFKNLLGNPQASIAQIIVTVVLGLVIGAIYFGLKNDSTGIQNRAGVLFFLTTNQCFSSVSAVELFVVEKKLFIHEYISGYYRVSSYFLGKLLSDLLPMRMLPSIIFTCIVYFMLGLKPKADAFFVMMFTLMMVAYSASSMALAIAAGQSVVSVATLLMTICFVFMMIFSGLLVNLTTIASWLSWLQYFSIPRYGFTALQHNEFLGQNFCPGLNATGNNPCNYATCTGEEYLVKQGIDLSPWGLWKNHVALACMIVIFLTIAYLKLLFLKKYS
Turning to B1, in data set [4] (other: BCRP vesicles), the Km was 1.34 ± 1.45 mM.

B2: human MRP4 (Homo sapiens) (protein)
chain: MLPVYQEVKPNPLQDANLCSRVFFWWLNPLFKIGHKRRLEEDDMYSVLPEDRSQHLGEELQGFWDKEVLRAENDAQKPSLTRAIIKCYWKSYLVLGIFTLIEESAKVIQPIFLGKIINYFENYDPMDSVALNTAYAYATVLTFCTLILAILHHLYFYHVQCAGMRLRVAMCHMIYRKALRLSNMAMGKTTTGQIVNLLSNDVNKFDQVTVFLHFLWAGPLQAIAVTALLWMEIGISCLAGMAVLIILLPLQSCFGKLFSSLRSKTATFTDARIRTMNEVITGIRIIKMYAWEKSFSNLITNLRKKEISKILRSSCLRGMNLASFFSASKIIVFVTFTTYVLLGSVITASRVFVAVTLYGAVRLTVTLFFPSAIERVSEAIVSIRRIQTFLLLDEISQRNRQLPSDGKKMVHVQDFTAFWDKASETPTLQGLSFTVRPGELLAVVGPVGAGKSSLLSAVLGELAPSHGLVSVHGRIAYVSQQPWVFSGTLRSNILFGKKYEKERYEKVIKACALKKDLQLLEDGDLTVIGDRGTTLSGGQKARVNLARAVYQDADIYLLDDPLSAVDAEVSRHLFELCICQILHEKITILVTHQLQYLKAASQILILKDGKMVQKGTYTEFLKSGIDFGSLLKKDNEESEQPPVPGTPTLRNRTFSESSVWSQQSSRPSLKDGALESQDTENVPVTLSEENRSEGKVGFQAYKNYFRAGAHWIVFIFLILLNTAAQVAYVLQDWWLSYWANKQSMLNVTVNGGGNVTEKLDLNWYLGIYSGLTVATVLFGIARSLLVFYVLVNSSQTLHNKMFESILKAPVLFFDRNPIGRILNRFSKDIGHLDDLLPLTFLDFIQTLLQVVGVVSVAVAVIPWIAIPLVPLGIIFIFLRRYFLETSRDVKRLESTTRSPVFSHLSSSLQGLWTIRAYKAEERCQELFDAHQDLHSEAWFLFLTTSRWFAVRLDAICAMFVIIVAFGSLILAKTLDAGQVGLALSYALTLMGMFQWCVRQSAEVENMMISVERVIEYTDLEKEAPWEYQKRPPPAWPHEGVIIFDNVNFMYSPGGPLVLKHLTALIKSQEKVGIVGRTGAGKSSLISALFRLSEPEGKIWIDKILTTEIGLHDLRKKMSIIPQEPVLFTGTMRKNLDPFNEHTDEELWNALQEVQLKETIEDLPGKMDTELAESGSNFSVGQRQLVCLARAILRKNQILIIDEATANVDPRTDELIQKKIREKFAHCTVLTIAHRLNTIIDSDKIMVLDSGRLKEYDEPYVLLQNKESLFYKMVQQLGKAEAAALTETAKQVYFKRNYPHIGHTDHMVTNTSNGQPSTLTIFETAL
Consider B2, for which, in data set [4] (other: MRP4 vesicles), the Km was determined as 15.3 ± 44.1 mM.
